The text below walks through data of patent publication US20100234381A1, “BIOMARKERS AND METHODS FOR DETERMINING SENSITIVITY TO VASCULAR ENDOTHELIAL GROWTH FACTOR RECEPTOR-2 MODULATORS” (Bristol-Myers Squibb Company, priority 2007, published 2010).

The test system of assay [1] is VEGF-stimulated cancer cell lines. Put plainly: VEGF-stimulated tumor cell proliferation, panel of cancer cell lines. Type of assay: cell-based. The settings on record: in vitro.
In assay [2] the test system is advanced or metastatic solid tumors. Put plainly: Phase 1 clinical study CA 182-002: tumor response and PFS by FGF2 status. Format: in vivo, human. To be noted: for patients with progressive disease / patients with a partial response or stable disease: after 56 days of treatment; for patients with a partial response or stable disease: WHO criteria; for median increase in tumor size from baseline: after two cycles of treatment (approximately 56 days). An excerpt: All patients gave informed consent for the clinical trial and for this study, which was approved by the appropriate institutional review boards. Inclusion criteria include ECOG 0-1 (S. Javerzat et al., Trends Mol. Med., 8:483 (2002)), adequate bone marrow and hepatic function, and having tumor tissue block or 20 to 30 unstained slides of the initial biopsy available. Exclusion criteria included prior exposure to vascular endothelial growth factor (VEGF) inhibitors, presence of cardiovascular disease, thromboembolism, or bleeding in the last 6 months. All patients enrolled in the clinical trial had previously failed primary and secondary chemotherapy courses. […] Patients' response was measured by quantifying tumor size by contrast enhanced tomography (CT).
Tumor response was assesses using the modified WHO tumor response criteria. Lesions were evaluated by computed tomography (CT). Lesions were bidimensional and had at least one diameter of >2 cm on standard CT and >1 cm on spiral CT. For bidimensional measurements, the second diameter was perpendicular to the longest diameter. The area of lesion was calculated by multiplying the longest diameter by the greatest perpendicular diameter.
Tumor blocks were sectioned at 4 μm. Slides were de-paraffined and rehydrated in the LEICA® ST5020 Multistainer. Antigen retrieval was carried out by heating slides with Citra Plus Antigen retrieval solution (BioGenex, Cat # HK080-9K) in a BIOGENEX® EZ-Retriever Microwave at 95° C. for 15 minutes. The slides were then cooled at room temp for 5 minutes, and rinsed with distilled water for three times (˜1 minute each). Slides were immunostained in the i6000 Automated Staining System (BioGennex) using the following conditions: blocking with peroxide block (DAKO, Cat# K4007) for 5 minutes, followed by 5% goat serum for 30 mins, primary antibodies rabbit anti-fibroblast growth factor-2 (FGF-2) (Abcam Cat# #16828) 1:25 or rabbit immunoglobulin G (Rabbit IgG, LabVision, Cat# NC-100-P) 5 μg/ml were added and incubated for 1 hour, followed by Peroxidase Anti-Rabbit IgG (H+L) secondary antibody (Vector, Cat# PI-1000) at 1:200 dilution for 45 minutes. Chromogen substrate DAB (DAKO, Cat# K4007) was added and incubated for 5 minutes. Slides were counterstained with hematoxyline (DAKO cat#53309) for 1 minute. The stained slides were dehydrated and coverslipped in the LEICA® ST5020 Multistainer and assessed by a board-certified pathologist, without knowledge of patients' medical status.
To compare response rates between the FGF-2(+) and FGF-2(−) groups, a Fisher's exact test was used. To test for differences of percent changes from baseline in tumor between FGF-2(+) and FGF-2(−) groups, a non-parametric Wilcoxon rank-sum test was used (since the assumptions on the marginal distributions for the t-statistic were slightly violated for percent change from baseline, and small sample sizes could increase the test's vulnerability to assumption violations). The same method was applied to test for the difference in percent change from baseline of CIV at Day 8 and Day 26 between the two groups. In addition, a Rank-based ANCOVA was used to investigate the effect of the FGF-2 status on the post-baseline tumor volume, adjusted for the baseline tumor volume. All analyses were performed using R (Y. Shing et al., Science., 223:1296 (1984)).

The next assay deals with GEO colon cancer cells. Put plainly: VEGF-induced proliferation of GEO colon cancer cells (modified MTS assay). Format: cell-based. The settings on record: VEGF 2.5 ng/ml; 72 hours. The method, then:
Cell Culture-GEO colon cancer cell line was routinely maintained in RPMI 1640 (Cellgro, Virginia) with 1% fetal bovine serum (Cellgro, Virginia) at 37° C. in 5% carbon dioxide/95% air in the presence of 100 units/ml penicillin, 100 μg/ml streptomycin (Cellgro, Virginia). Cell proliferation was determined by a modified MTS assay with […] 96® Aqueous One Solution Reagent (Promega, Madison, Wis.). […] After 180 minutes incubation, the optical densities (OD) of these samples were directly measured using SPECTRAMAX® plus (Molecular Device, California) and reference wavelength of 490 nm. […] Cell proliferation was determined by a modified MTS assay with […] […] After 180 minutes incubation, the optical densities (OD) of these samples were directly measured using SPECTRAMAX® plus (Molecular Device, California) and reference wavelength of 490 nm. […] […]
In general terms: Tetrazolium assays rely on reduction of a dye to a coloured formazan, in cell work by metabolically active cells.

In the case of “[(1R),2S]-2-Aminopropionic acid 2-[4-(4-fluoro-2-methyl-1H-indol-5-yloxy)-5-methylpyrrolo[2,1-f][1,2,4]triazin-6-yloxy]-1-methylethyl ester [brivanib]”, in assay [1], the “effect on tumor cell proliferation in the presence of VEGF” value is “no affect on tumor cell proliferation”. In addition, the “tumor shrinkage from baseline, FGF2 staining vs negative staining tumors” value in assay [2] (Example 1 analysis of CA 182-002, not statistically significant) is listed as “tend to have more shrinkage than the negative staining tumors”. Moreover, the “survival, FGF2 positive vs negative tumors (Kaplan-Meier)” value in assay [2] (Example 1 analysis of CA 182-002, p value 0.475) is reported as “tended to have a survival advantage”. Moreover, in assay [2] (FGF2+ patients (n = 24)), the “Mean change in tumor size (%) (~8 wks) High (≧600 mg) (n = 26)” value was found to be 0.9%, the “Mean change in tumor size (%) (~8 wks) Low (<600 mg) (n = 17)” value came to 28%, the “Median PFS (days) High (≧600 mg) (n = 26)” value was determined as 107 days and the “Median PFS (days) Low (<600 mg) (n = 17)” value is on record as 71 days. Besides, in assay [2] (FGF2+ patients (n = 24)), the “PD, number of patients” value worked out at 9 and the “PR, number of patients” value was determined as 2. Also, in assay [2] (FGF2− patients (n = 19)), the “Mean change in tumor size (%) (~8 wks) High (≧600 mg) (n = 26)” value is reported as 24%, the “Mean change in tumor size (%) (~8 wks) Low (<600 mg) (n = 17)” value is 71%, the “Median PFS (days) High (≧600 mg) (n = 26)” value came to 56 days and the “Median PFS (days) Low (<600 mg) (n = 17)” value came out at 54 days. In assay [2] (FGF2− patients (n = 19)), the “PD, number of patients” value was found to be 14 and the “PR, number of patients” value is reported as 0. In assay [2] (patients with FGF-2(+) tumors), the “reduction of tumor growth, FGF-2(+) compared with FGF-2(−) patients” value is “three-fold”; the “patients with progressive disease” value was 9 out of 24; the “patients with a partial response or stable disease” value is 62.5%; the “median increase in tumor size from baseline” value was determined as 1%. In addition, in assay [2] (patients with FGF-2(−) tumors), the “patients with progressive disease” value was 14 out of 19 and the “median increase in tumor size from baseline” value stood at 36%. In addition, the “patients with a partial response or stable disease” value in assay [2] (patients with FGF-2− tumors) is 26.3%. In the assay on GEO colon cancer cells, the “inhibition of VEGF-induced cellular proliferation in GEO cells” value is recorded as “did not potently inhibit”.
